Measurements reported in PubChem BioAssay (NCI).
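Each compound was tested at five concentrations against cells in 96-well plates for 48 hours. GI50: concentration for 50% inhibition of growth. TGI: total growth inhibition.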

Tests used:
Assay in all cases: NCI tumour cell line growth inhibition, 48 h
786-0 renal = test system: 786-0 renal
A498 renal = test system: A498 renal
A549 NSCLC = test system: A549 NSCLC
ACHN renal = test system: ACHN renal
BT-549 breast = test system: BT-549 breast
CAKI-1 renal = test system: CAKI-1 renal
CCRF-CEM leukemia = test system: CCRF-CEM leukemia
COLO 205 colon = test system: COLO 205 colon
DU-145 prostate = test system: DU-145 prostate
HCC-2998 colon = test system: HCC-2998 colon
HCT-116 colon = test system: HCT-116 colon
HCT-15 colon = test system: HCT-15 colon
HL-60(TB) leukemia = test system: HL-60(TB) leukemia
HOP-62 NSCLC = test system: HOP-62 NSCLC
HOP-92 NSCLC = test system: HOP-92 NSCLC
HS 578T breast = test system: HS 578T breast
HT29 colon = test system: HT29 colon
IGROV1 ovarian = test system: IGROV1 ovarian
K-562 leukemia = test system: K-562 leukemia
KM12 colon = test system: KM12 colon
LOX IMVI melanoma = test system: LOX IMVI melanoma
M14 melanoma = test system: M14 melanoma
MALME-3M melanoma = test system: MALME-3M melanoma
MCF7 breast = test system: MCF7 breast
MDA-MB-231 breast = test system: MDA-MB-231 breast
MDA-MB-435 = test system: MDA-MB-435
MOLT-4 leukemia = test system: MOLT-4 leukemia
NCI-H226 lung = test system: NCI-H226 lung
NCI-H23 lung = test system: NCI-H23 lung
NCI-H460 lung = test system: NCI-H460 lung
NCI-H522 lung = test system: NCI-H522 lung
NCI/ADR-RES ovarian = test system: NCI/ADR-RES ovarian
OVCAR-3 ovarian = test system: OVCAR-3 ovarian
OVCAR-4 ovarian = test system: OVCAR-4 ovarian
OVCAR-5 ovarian = test system: OVCAR-5 ovarian
OVCAR-8 ovarian = test system: OVCAR-8 ovarian
PC-3 prostate = test system: PC-3 prostate
RPMI-8226 leukemia = test system: RPMI-8226 leukemia
RXF 393 renal = test system: RXF 393 renal
SF-268 CNS = test system: SF-268 CNS
SF-295 CNS = test system: SF-295 CNS
SF-539 CNS = test system: SF-539 CNS
SK-MEL-2 melanoma = test system: SK-MEL-2 melanoma
SK-MEL-28 melanoma = test system: SK-MEL-28 melanoma
SK-MEL-5 melanoma = test system: SK-MEL-5 melanoma
SK-OV-3 ovarian = test system: SK-OV-3 ovarian
SN12C renal = test system: SN12C renal
SNB-19 CNS = test system: SNB-19 CNS
SNB-75 CNS = test system: SNB-75 CNS
SR leukemia = test system: SR leukemia
SW-620 colon = test system: SW-620 colon
T-47D breast = test system: T-47D breast
TK-10 renal = test system: TK-10 renal
U251 CNS = test system: U251 CNS
UACC-257 melanoma = test system: UACC-257 melanoma
UACC-62 melanoma = test system: UACC-62 melanoma
UO-31 renal = test system: UO-31 renal

`Cn1cc(C2=C(c3c4n(c5ccccc35)CCCC4)C(=O)NC2=O)c2ccccc21` gave a GI50 (786-0 renal) of over 17.8 µM, a TGI (786-0 renal) of over 25 µM and a GI50 (A498 renal) of 5.19 µM. The TGI (A498 renal) was over 25 µM, the GI50 (A549 NSCLC) was 12.5 µM and the TGI (A549 NSCLC) was over 25 µM. It also gave a GI50 (ACHN renal) of 20.4 µM, a TGI (ACHN renal) of over 25 µM and a GI50 (BT-549 breast) of over 18.5 µM. For the same compound, the TGI (BT-549 breast) was over 25 µM, the GI50 (CAKI-1 renal) was 8.1 µM and the TGI (CAKI-1 renal) was over 25 µM. For the same compound, the GI50 (CCRF-CEM leukemia) was over 15.3 µM, the TGI (CCRF-CEM leukemia) was over 25 µM and the GI50 (COLO 205 colon) was 10.7 µM. The TGI (COLO 205 colon) was over 25 µM, the GI50 (DU-145 prostate) was over 15 µM and the TGI (DU-145 prostate) was over 25 µM. For the same compound, the GI50 (HCC-2998 colon) was over 23.8 µM, the TGI (HCC-2998 colon) was over 25 µM and the GI50 (HCT-116 colon) was 11.4 µM. It also gave a TGI (HCT-116 colon) of over 25 µM, a GI50 (HCT-15 colon) of 11 µM and a TGI (HCT-15 colon) of over 25 µM. For the same compound, the GI50 (HL-60(TB) leukemia) was 9.59 µM, the TGI (HL-60(TB) leukemia) was over 25 µM and the GI50 (HOP-62 NSCLC) was over 17.6 µM. It also gave a TGI (HOP-62 NSCLC) of over 25 µM, a GI50 (HOP-92 NSCLC) of 8.89 µM and a TGI (HOP-92 NSCLC) of over 25 µM. It also gave a GI50 (HS 578T breast) of 5.13 µM, a TGI (HS 578T breast) of over 25 µM and a GI50 (HT29 colon) of 9.39 µM. For the same compound, the TGI (HT29 colon) was over 25 µM, the GI50 (IGROV1 ovarian) was over 8.23 µM and the TGI (IGROV1 ovarian) was over 25 µM. It also gave a GI50 (K-562 leukemia) of 5.32 µM, a TGI (K-562 leukemia) of over 25 µM and a GI50 (KM12 colon) of 9.71 µM. For the same compound, the TGI (KM12 colon) was over 25 µM, the GI50 (LOX IMVI melanoma) was 16.6 µM and the TGI (LOX IMVI melanoma) was over 25 µM. It also gave a GI50 (M14 melanoma) of 13.4 µM, a TGI (M14 melanoma) of over 25 µM and a GI50 (MALME-3M melanoma) of over 17.8 µM. For the same compound, the TGI (MALME-3M melanoma) was over 25 µM, the GI50 (MCF7 breast) was 6.58 µM and the TGI (MCF7 breast) was over 25 µM. For the same compound, the GI50 (MDA-MB-231 breast) was over 20.2 µM, the TGI (MDA-MB-231 breast) was over 25 µM and the GI50 (MDA-MB-435) was 1.08 µM. For the same compound, the TGI (MDA-MB-435) was over 15.2 µM, the GI50 (MOLT-4 leukemia) was over 17.2 µM and the TGI (MOLT-4 leukemia) was over 25 µM. It also gave a GI50 (NCI-H226 lung) of over 22 µM, a TGI (NCI-H226 lung) of over 25 µM and a GI50 (NCI-H23 lung) of over 18.2 µM. It also gave a TGI (NCI-H23 lung) of over 25 µM, a GI50 (NCI-H460 lung) of 9.9 µM and a TGI (NCI-H460 lung) of over 25 µM. For the same compound, the GI50 (NCI-H522 lung) was 4.29 µM, the TGI (NCI-H522 lung) was over 16.3 µM and the GI50 (NCI/ADR-RES ovarian) was 7.81 µM. For the same compound, the TGI (NCI/ADR-RES ovarian) was over 25 µM, the GI50 (OVCAR-3 ovarian) was 6.43 µM and the TGI (OVCAR-3 ovarian) was over 21.6 µM. For the same compound, the GI50 (OVCAR-4 ovarian) was over 16.5 µM, the TGI (OVCAR-4 ovarian) was over 25 µM and the GI50 (OVCAR-5 ovarian) was over 25 µM. For the same compound, the TGI (OVCAR-5 ovarian) was over 25 µM, the GI50 (OVCAR-8 ovarian) was over 18.4 µM and the TGI (OVCAR-8 ovarian) was over 25 µM. For the same compound, the GI50 (PC-3 prostate) was 10.4 µM, the TGI (PC-3 prostate) was over 25 µM and the GI50 (RPMI-8226 leukemia) was over 15.6 µM. For the same compound, the TGI (RPMI-8226 leukemia) was over 25 µM, the GI50 (RXF 393 renal) was 5.86 µM and the TGI (RXF 393 renal) was over 16.1 µM. The GI50 (SF-268 CNS) was 12 µM, the TGI (SF-268 CNS) was over 25 µM and the GI50 (SF-295 CNS) was 7.21 µM. It also gave a TGI (SF-295 CNS) of over 25 µM, a GI50 (SF-539 CNS) of 10.5 µM and a TGI (SF-539 CNS) of over 25 µM. It also gave a GI50 (SK-MEL-2 melanoma) of 10.1 µM, a TGI (SK-MEL-2 melanoma) of over 25 µM and a GI50 (SK-MEL-28 melanoma) of over 21.8 µM. The TGI (SK-MEL-28 melanoma) was over 25 µM, the GI50 (SK-MEL-5 melanoma) was 7.94 µM and the TGI (SK-MEL-5 melanoma) was over 25 µM. The GI50 (SK-OV-3 ovarian) was over 15.3 µM, the TGI (SK-OV-3 ovarian) was over 25 µM and the GI50 (SN12C renal) was 15.1 µM. The TGI (SN12C renal) was over 25 µM, the GI50 (SNB-19 CNS) was 20.6 µM and the TGI (SNB-19 CNS) was over 25 µM. It also gave a GI50 (SNB-75 CNS) of 3.82 µM, a TGI (SNB-75 CNS) of 19.3 µM and a GI50 (SR leukemia) of 5.92 µM. For the same compound, the TGI (SR leukemia) was over 25 µM, the GI50 (SW-620 colon) was 8.74 µM and the TGI (SW-620 colon) was over 25 µM. The GI50 (T-47D breast) was over 15.5 µM, the TGI (T-47D breast) was over 25 µM and the GI50 (TK-10 renal) was over 20.1 µM. It also gave a TGI (TK-10 renal) of over 25 µM, a GI50 (U251 CNS) of 13.2 µM and a TGI (U251 CNS) of over 25 µM. The GI50 (UACC-257 melanoma) was over 21.7 µM, the TGI (UACC-257 melanoma) was over 25 µM and the GI50 (UACC-62 melanoma) was 6.32 µM. It also gave a TGI (UACC-62 melanoma) of over 25 µM, a GI50 (UO-31 renal) of 11.3 µM and a TGI (UO-31 renal) of over 25 µM.
